Experimental data as given in BindingDB's records for doi:10.1021/jm9805081 (Warner-Lambert, 1999).

Molecular target: T1, Prostaglandin G/H synthase 2 (Homo sapiens, UniProt P35354)
T1 sequence (P35354 whole entry): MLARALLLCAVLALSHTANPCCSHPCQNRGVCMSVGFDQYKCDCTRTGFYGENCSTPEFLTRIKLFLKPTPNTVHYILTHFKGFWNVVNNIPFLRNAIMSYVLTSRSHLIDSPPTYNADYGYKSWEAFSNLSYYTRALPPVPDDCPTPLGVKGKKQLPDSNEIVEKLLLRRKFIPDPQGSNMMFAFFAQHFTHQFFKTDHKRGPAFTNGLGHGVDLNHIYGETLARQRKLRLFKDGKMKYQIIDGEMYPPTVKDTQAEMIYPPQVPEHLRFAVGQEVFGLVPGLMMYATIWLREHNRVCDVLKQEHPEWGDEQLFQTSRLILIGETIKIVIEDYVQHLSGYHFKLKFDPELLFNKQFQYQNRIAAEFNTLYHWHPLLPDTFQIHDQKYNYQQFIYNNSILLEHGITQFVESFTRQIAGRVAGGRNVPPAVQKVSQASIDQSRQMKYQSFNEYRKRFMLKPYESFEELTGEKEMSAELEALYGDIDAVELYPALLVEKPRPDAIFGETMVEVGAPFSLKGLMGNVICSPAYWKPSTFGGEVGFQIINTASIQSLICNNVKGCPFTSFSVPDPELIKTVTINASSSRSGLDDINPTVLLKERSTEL
Assay: IC50 value against recombinant human Prostaglandin G/H synthase 2 at 10 uM; not active

IC50: > 10 µM
Structure (SMILES): CONC1=NC(=O)C(=Cc2cc(C(C)(C)C)c(O)c(C(C)(C)C)c2)O1 [5-[1-(3,5-Di-tert-butyl-4-hydroxy-phenyl)-meth-(Z)-ylidene]-2-methoxyamino-oxazol-4-one]
